Measurements from EP4810009A1, “MELANOGENESIS INHIBITOR AND EXTERNAL PREPARATION FOR SKIN CONTAINING SAME” (MITSUBISHI GAS CHEMICAL COMPANY, INC., priority 2023, dated 2025).

Columns and labels:
[1] = Solubility in oils and fats (saturated solubility of palmitic acid in organic acid solution); format: physicochemical; settings: palmitic acid in aqueous solution of 50% by weight of organic acid; room temperature (23°C), 24 hours
Method: Palmitic acid was added into an aqueous solution of 50% by weight of organic acid, and the mixed solution was then stirred at room temperature (23°C) for 24 hours.

[2] = Solubility in oils (saturated solubility of oleic acid in organic acid solution); format: physicochemical; settings: oleic acid in aqueous solution of 50% by weight of organic acid; room temperature (23°C), 24 hours
Method: Oleic acid was added into an aqueous solution of 50% by weight of organic acid, and the mixed solution was then stirred at room temperature (23°C) for 24 hours.

[3] = system: Cutibacterium acnes NBRC 107605; assay: Ability to eliminate acne bacteria; format: cell-based; settings: 0.05 mL of aqueous solution of 7% by weight of organic acid added to 5 mL test solution; viable cell count after 60 seconds
Method: 0.05 mL of an aqueous solution of 7% by weight of organic acid was added dropwise to 5 mL of a test solution containing the bacterial strain Cutibacterium acnes NBRC 107605 at a concentration of 10^8 CFU/mL. After 60 seconds, if the viable cell count was less than 1%, it was evaluated as A; if the viable cell count was 1% or more, it was evaluated as B. [Table 10]

pig skin = assay: Chemical peeling ability; settings: aqueous solution of 7% by weight of organic acid on pig skin for 24 hours; decrease of stratum corneum thickness
Method: An aqueous solution of 7% by weight of organic acid was allowed to act on to pig skin for 24 hours. If the thickness of the stratum corneum decreased by 10% or more, it was evaluated as A; if it decreased by less than 10%, it was evaluated as B.

tyrosinase mRNA = assay: Evaluation of suppression of melanin synthesis-related factor mRNA expression (Real-time PCR); format: cell-based; settings: normal human melanocytes; 10 and 20 mM; 24 hours; Figure 5
Method: Normal human melanocytes (manufactured by Kurabo Industries, Ltd.) were used as melanin-producing cells. As a medium for the cells, […] was used. The cell concentration was adjusted to 3 x 10^4 cells/mL, and the cells were cultured in a 96-well plate in the presence of 5% carbon dioxide at 37°C for 24 hours. As a test sample, NaOH was added to methyl lactic acid to adjust the pH to 6.5, and was used. […] As a control, […], into which methyl lactic acid was not added, was used. The medium was replaced with the test sample (100 μL/well) and cultured for 24 hours. After removing the medium, RNA was extracted using Cells-to-Ct kit (manufactured by Themo), and was then subjected to reverse transcription to synthesize cDNA. Using the resulting cDNA, Real-time PCR was carried out, and the relative expression level of mRNA was calculated. In Figure 5, "Control" is a negative control, which uses a medium without the test sample.

B16 melanoma [4] = assay: Cytotoxicity test (Cell counting Kit 8); format: cell-based, mouse; settings: 100 µM methyl lactic acid, one day of culture, Figure 2
Method: Cell culture was performed by the same method as that in Example 1 mentioned above.
The test sample was prepared by the same method as that in Example 1 mentioned above.
Cells were detached from the culture obtained under the cell culture conditions described in Example 1, and 0.1 mL of cells and medium were each seeded into a 96-well vessel to a cell concentration of 5 x 10^4 cells/mL. After one day of culture, the medium was removed and replaced with the test sample. After one further day of culture, the vessel was washed with an assay medium, and 0.1 mL each of a 1 : 9 mixed solution of Cell counting Kit 8 and medium was added. After the mixture had been left at rest at 37°C for 30 minutes in the presence of 5% carbon dioxide, the absorbance at 450 nm was measured using a plate reader, and the cell count was calculated.
The cell count (%) is a relative value (%) in a case where the cell count in the negative control (medium alone) is taken as 100%, and for each case, it is an average value of the values measured for 16 samples.

tyrosinase protein = assay: Tyrosinase protein expression inhibition test (Western blot); format: cell-based; settings: normal human melanocytes; 20 mM; 48 hours; Figure 4
Method: (§1) Normal human melanocytes (manufactured by Kurabo Industries Ltd.) were used as melanin-producing cells. As a medium for the cells, Dermalife was used. The cell concentration was adjusted to 3 x 10^5 cells/1.5 mL, and the cells were cultured in a 6-well plate in the presence of 5% carbon dioxide at 37°C for 24 hours.
(§2) As a test sample, NaOH was added to methyl lactic acid to adjust the pH to 6.5, and was used. […]. As a control, Dermalife, into which methyl lactic acid was not added, was used.
The medium was replaced with the test sample (1.5 mL/well) and cultured for 48 hours. After removing the medium, proteins were extracted using M-PER™ Mammalian Protein Extraction Reagent (manufactured by Themo), and were then developed by SDS-PAGE. After the resultant had been transferred onto a polyvinylidene difluoride (PVDF) membrane, the membrane was blocked with 5% skim milk. After a reaction had been performed with an anti-tyrosinase antibody (manufactured by Santa Cruz Biotechnology) for 1 hour, the membrane was further reacted with an HRP-conjugated secondary antibody (manufactured by abcam) for an additional 1 hour. Protein bands were detected using Ez West Blue W (manufactured by ATTO). The signal intensity of the resulting bands was detected using the image processing software ImageJ, and the relative protein expression levels were calculated. […]

B16 melanoma [5] = assay: Evaluation of melanin production inhibitory activity; format: cell-based, mouse; settings: 100 µM methyl lactic acid, pH 6.5 with NaOH; one day of culture; compared with kojic acid 1 mM positive control; Figure 1
Method: As melanin-producing cells, mouse-derived skin melanoma cells, B16 melanoma (JCRB0202, purchased from JCRB Cell Bank) were used. As a medium for cell culture, 500 mL of E-MEM medium was mixed with 5 mL of x 100 penicillin-streptomycin solution and 100 mL of inactivated fetal bovine serum (manufactured by West Bio), and the resulting medium was used. For the subculture of cells, the cells were washed with a phosphate buffer (manufactured by GIBCO), and were detached from the vessel with 0.25% trypsin and EDTA (ethylenediaminetetraacetic acid), followed by addition of a medium, and the obtained mixture was centrifugated to separate the cels. To ensure stable cell culture, the cell concentration was adjusted to 5 to 16 x 10^4 cells/mL, and the cells were then cultured in a 10-cm petri dish or a plastic culture flask (175 cm^2) in the presence of 5% carbon dioxide at 37°C. […] The absorbance at 450 nm was measured using a plate reader, and the melanin concentration was calculated. […] The melanin production percentage (%) shown in Figure 1 is a relative value (%) in a case where the melanin concentration in the negative control is taken as 100%, and for each case, it is an average value of the values measured for 12 samples.

tyrosinase = assay: Tyrosinase biosynthesis inhibitory action test (DOPA-melanin per unit protein in cell lysate); format: cell-based; settings: normal human melanocytes; 2.5, 5, 10, 20, and 40 mM; one day of culture; Figure 3
Method: as §1, with “Industries,” for “Industries”, “Dermalife (manufactured by Kurabo Industries, Ltd.)” for “Dermalife”, “10^4 cells/mL,” for “10^5 cells/1.5 mL,”, “96-well” for “6-well”
as §2
The medium was removed from the culture obtained under the aforementioned cell culture conditions and replaced with the test sample. After one day of culture, the medium was removed, and a phosphate buffer containing 0.5% Triton X-100 was added in an amount of 50 µL/well. The cells were lysed by agitation. 50 µL of the cell lysate was mixed with 50 µL of phosphate buffer containing 2 mM DOPA, and the obtained mixture was then incubated at 37°C for 2 hours. The absorbance (measurement wavelength: 405 nm, reference wavelength: 650 nm) was measured, and the amount of DOPA-melanin was calculated from a calibration curve. The amount of the protein was quantified using a BCA protein assay kit (Thermo), and the amount of DOPA-melanin per unit protein was then calculated to confirm tyrosinase biosynthesis inhibitory action. […]

Compound	Solubility in oils and fats [1]	Solubility in oils [2]	Ability to eliminate acne bacteria [3]	Chemical peeling ability (pig skin)	tyrosinase mRNA expression-suppressing action (relative expression level of tyrosinase mRNA) (tyrosinase mRNA)	cytotoxicity (cell count) (B16 melanoma [4])	tyrosinase protein expression inhibitory action (relative expression level of tyrosinase protein) (tyrosinase protein)	melanogenesis-inhibiting effect (melanin production percentage) (B16 melanoma [5])	tyrosinase biosynthesis inhibitory action (DOPA-melanin per unit protein) (tyrosinase)
O=c1cc(CO)occ1O [Kojic acid, reference compound]	B (if it was less than 20 ppm, it was evaluated as B)	B (if it was less than 200 ppm, it was evaluated as B)	B (if the viable cell count was 1% or more, it was evaluated as B)	B (if it decreased by less than 10%, it was evaluated as B)					
CC(C)(O)C(=O)O [Methyl lactic acid, 2-hydroxyisobutyric acid]	A (if the saturated solubility of palmitic acid was 20 ppm or more, it was evaluated as A)	A (if the saturated solubility of oleic acid was 200 ppm or more, it was evaluated as A)	A (if the viable cell count was less than 1%, it was evaluated as A)	A (If the thickness of the stratum corneum decreased by 10% or more, it was evaluated as A)	exhibited a tyrosinase mRNA expression-suppressing action	cytotoxicity was not confirmed	a tyrosinase protein expression inhibitory action was exhibited	the same melanogenesis-inhibiting effect as the addition of kojic acid	a tyrosinase biosynthesis inhibitory action was exhibited in a dose-dependent manner
O=C(O)CO [Glvcolic acid]			A (if the viable cell count was less than 1%, it was evaluated as A)	A (If the thickness of the stratum corneum decreased by 10% or more, it was evaluated as A)					
CC(O)C(=O)O (centres unmarked) [Lactic acid]			A (if the viable cell count was less than 1%, it was evaluated as A)	A (If the thickness of the stratum corneum decreased by 10% or more, it was evaluated as A)					
